Columns and labels:
[1] = test system: ducksalad (Heteranthera limosa); assay: Test B flooded paddy test, visual rating 0-100; details: Flood, 250 g ai/ha, applied to paddy water, rated after 13 to 15 days
rice (Oryza sativa) = assay: Test B flooded paddy test, visual rating 0-100 (0 no effect, 100 complete control); details: Flood, 250 g ai/ha, applied to paddy water, rated after 13 to 15 days
[2] = test system: ragweed (common ragweed, Ambrosia elatior); assay: Test A preemergence, visual injury rating 0-100; type: in vivo
kochia (Kochia scoparia) [3] = assay: Test A preemergence, visual injury rating 0-100; type: in vivo
[4] = test system: foxtail, green (green foxtail, Setaria viridis); assay: Test A preemergence, visual injury rating 0-100; type: in vivo
[5] = test system: ryegrass, Italian (Italian ryegrass, Lolium multiflorum); assay: Test A preemergence, visual injury rating 0-100; type: in vivo
[6] = test system: pigweed (Amaranthus retroflexus); assay: Test A preemergence, visual injury rating 0-100; type: in vivo
[7] = test system: barnyardgrass (Echinochloa crus-galli); assay: Test A preemergence, visual injury rating 0-100 (0 no effect, 100 complete control); type: in vivo; details: for Barnyardgrass plant response rating (0 to 100 scale): 125 g ai/ha
[8] = test system: barnyardgrass (Echinochloa crus-galli); assay: Test B flooded paddy test, visual rating 0-100; details: Flood, 250 g ai/ha, applied to paddy water, rated after 13 to 15 days
[9] = test system: ragweed (common ragweed, Ambrosia elatior); assay: Test A postemergence, visual injury rating 0-100; type: in vivo; details: 0 to 100 scale
[10] = test system: barnyardgrass (Echinochloa crus-galli); assay: Test A postemergence, visual injury rating 0-100; type: in vivo; details: 0 to 100 scale
kochia (Kochia scoparia) [11] = assay: Test A postemergence, visual injury rating 0-100; type: in vivo; details: 0 to 100 scale
[12] = test system: foxtail, green (green foxtail, Setaria viridis); assay: Test A postemergence, visual injury rating 0-100; type: in vivo; details: 0 to 100 scale
[13] = test system: blackgrass (Alopecurus myosuroides); assay: Test A postemergence, visual injury rating 0-100; type: in vivo; details: 0 to 100 scale
[14] = test system: ryegrass, Italian (Italian ryegrass, Lolium multiflorum); assay: Test A postemergence, visual injury rating 0-100; type: in vivo; details: 0 to 100 scale
[15] = test system: wheat (Triticum aestivum); assay: Test A postemergence, visual injury rating 0-100; type: in vivo; details: 0 to 100 scale
corn (Zea mays) = assay: Test A postemergence, visual injury rating 0-100; type: in vivo; details: 0 to 100 scale
[16] = test system: pigweed (Amaranthus retroflexus); assay: Test A postemergence, visual injury rating 0-100; type: in vivo; details: 0 to 100 scale
[17] = test system: galium (catchweed bedstraw, Galium aparine); assay: Test A postemergence, visual injury rating 0-100; type: in vivo; details: 0 to 100 scale
[18] = 31 g ai/ha, 0 to 100 scale (0 no effect, 100 complete control), approx. 10 days

| SMILES | Ducksalad plant response rating (0 to 100 scale) [1] | Rice plant response rating (0 to 100 scale) (rice (Oryza sativa)) | Ragweed plant response rating (0 to 100 scale) ([2]; 125 g ai/ha) | Kochia plant response rating (0 to 100 scale) (kochia (Kochia scoparia) [3]; 125 g ai/ha) | Foxtail, Green plant response rating (0 to 100 scale) ([4]; 125 g ai/ha) | Ryegrass, Italian plant response rating (0 to 100 scale) ([5]; 125 g ai/ha) | Pigweed plant response rating (0 to 100 scale) ([6]; 125 g ai/ha) | Barnyardgrass plant response rating (0 to 100 scale) [7] | Barnyardgrass plant response rating (0 to 100 scale) [8] | Ragweed plant response rating ([9]; 125 g ai/ha) | Barnyardgrass plant response rating ([10]; 125 g ai/ha) | Kochia plant response rating (kochia (Kochia scoparia) [11]; 125 g ai/ha) | Foxtail, Green plant response rating ([12]; 125 g ai/ha) | Blackgrass plant response rating ([13]; 125 g ai/ha) | Ryegrass, Italian plant response rating ([14]; 125 g ai/ha) | Wheat plant response rating ([15]; 125 g ai/ha) | Corn plant response rating (corn (Zea mays); 125 g ai/ha) | Pigweed plant response rating ([16]; 125 g ai/ha) | Barnyardgrass plant response rating ([7]; 500 g ai/ha, 0 to 100 scale) | Ragweed plant response rating ([9]; 500 g ai/ha) | further results |
| --- | --- | --- | --- | --- | --- | --- | --- | --- | --- | --- | --- | --- | --- | --- | --- | --- | --- | --- | --- | --- | --- |
| CC1=[N+]([O-])[C@@H](C(=O)Nc2cccc(F)c2F)[C@H](c2ccc(F)c(F)c2)C1 [Compound 39] | 100 | 10 | 100 | 30 | 100 | 10 | 30 | 100 | 90 | 0 | 60 | 0 | 70 | 50 | 10 | 50 | 10 | 0 | – | – | Ragweed plant response rating [2, 18]: 0; Kochia plant response rating (kochia (Kochia scoparia) [3]; [18]): 0; Foxtail, Green plant response rating [4, 18]: 100; Ryegrass, Italian plant response rating [5, 18]: 20; Pigweed plant response rating [6, 18]: 0; Barnyardgrass plant response rating [7, 18]: 100; Ragweed plant response rating ([9]; 31 g ai/ha): 0; Barnyardgrass plant response rating ([10]; 31 g ai/ha): 0; Kochia plant response rating (kochia (Kochia scoparia) [11]; 31 g ai/ha): 0; Foxtail, Green plant response rating ([12]; 31 g ai/ha): 10; Blackgrass plant response rating ([13]; 31 g ai/ha): 0; Ryegrass, Italian plant response rating ([14]; 31 g ai/ha): 0; Wheat plant response rating ([15]; 31 g ai/ha): 0; Corn plant response rating (corn (Zea mays); 31 g ai/ha): 0; Pigweed plant response rating ([16]; 31 g ai/ha): 0; Galium plant response rating ([17]; 31 g ai/ha): 0; Galium plant response rating ([17]; 125 g ai/ha): 10 |
| CC1=[N+]([O-])C(C(=O)Nc2cccc(F)c2F)C(c2ccc(C)c(C)c2)C1 (racemic) [Compound 24] | 85 | 0 | 60 | 40 | 90 | 40 | 20 | 90 | 70 | 20 | 90 | 50 | 80 | 20 | 90 | 50 | 50 | 30 | 90 | 50 | Ragweed plant response rating ([2]; 500 g ai/ha, 0 to 100 scale): 80; Kochia plant response rating (kochia (Kochia scoparia) [3]; 500 g ai/ha, 0 to 100 scale): 90; Foxtail, Green plant response rating ([4]; 500 g ai/ha, 0 to 100 scale): 90; Ryegrass, Italian plant response rating ([5]; 500 g ai/ha, 0 to 100 scale): 70; Pigweed plant response rating ([6]; 500 g ai/ha, 0 to 100 scale): 50; Barnyardgrass plant response rating ([10]; 500 g ai/ha): 90; Kochia plant response rating (kochia (Kochia scoparia) [11]; 500 g ai/ha): 70; Foxtail, Green plant response rating ([12]; 500 g ai/ha): 90; Blackgrass plant response rating ([13]; 500 g ai/ha): 60; Ryegrass, Italian plant response rating ([14]; 500 g ai/ha): 80; Wheat plant response rating ([15]; 500 g ai/ha): 90; Corn plant response rating (corn (Zea mays); 500 g ai/ha): 90; Pigweed plant response rating ([16]; 500 g ai/ha): 60 |
| O=C(Nc1cccc(F)c1F)C1C(c2ccccc2)CC(C(F)(F)F)=[N+]1[O-] (racemic) [Compound 35] | 0 | 0 | 0 | 0 | 0 | 0 | 0 | 0 | 0 | 0 | 0 | 0 | 0 | 0 | 0 | 0 | 0 | 0 | 0 | 0 | Ragweed plant response rating (0 to 100 scale) ([2]; 500 g ai/ha): 0; Kochia plant response rating (0 to 100 scale) (kochia (Kochia scoparia) [3]; 500 g ai/ha): 0; Foxtail, Green plant response rating (0 to 100 scale) ([4]; 500 g ai/ha): 0; Ryegrass, Italian plant response rating (0 to 100 scale) ([5]; 500 g ai/ha): 0; Pigweed plant response rating (0 to 100 scale) ([6]; 500 g ai/ha): 0; Barnyardgrass plant response rating ([10]; 500 g ai/ha): 0; Kochia plant response rating (kochia (Kochia scoparia) [11]; 500 g ai/ha): 0; Foxtail, Green plant response rating ([12]; 500 g ai/ha): 0; Blackgrass plant response rating ([13]; 500 g ai/ha): 0; Ryegrass, Italian plant response rating ([14]; 500 g ai/ha): 0; Wheat plant response rating ([15]; 500 g ai/ha): 0; Corn plant response rating (corn (Zea mays); 500 g ai/ha): 0; Pigweed plant response rating ([16]; 500 g ai/ha): 0 |
| CC1=[N+]([O-])C(C(=O)Nc2ccc(F)cc2F)C(c2ccc(C(F)(F)F)cc2)C1 (racemic) [Compound 46] | 100 | 20 | 0 | 0 | 90 | 0 | 50 | 70 | 40 | 0 | 10 | 0 | 40 | 20 | 0 | 0 | 0 | 0 | 100 | 30 | Ragweed plant response rating (0 to 100 scale) ([2]; 500 g ai/ha): 90; Kochia plant response rating (0 to 100 scale) (kochia (Kochia scoparia) [3]; 500 g ai/ha): 90; Foxtail, Green plant response rating (0 to 100 scale) ([4]; 500 g ai/ha): 100; Ryegrass, Italian plant response rating (0 to 100 scale) ([5]; 500 g ai/ha): 0; Pigweed plant response rating (0 to 100 scale) ([6]; 500 g ai/ha): 90; Barnyardgrass plant response rating ([10]; 500 g ai/ha): 90; Kochia plant response rating (kochia (Kochia scoparia) [11]; 500 g ai/ha): 40; Foxtail, Green plant response rating ([12]; 500 g ai/ha): 90; Blackgrass plant response rating ([13]; 500 g ai/ha): 70; Ryegrass, Italian plant response rating ([14]; 500 g ai/ha): 40; Wheat plant response rating ([15]; 500 g ai/ha): 20; Corn plant response rating (corn (Zea mays); 500 g ai/ha): 40; Pigweed plant response rating ([16]; 500 g ai/ha): 30 |
| CC1=[N+]([O-])C(C(=O)Nc2ccccc2[S+](C)[O-])C(c2ccc(C(F)(F)F)cc2)C1 (racemic) [Compound 44] | 0 | 0 | 0 | 0 | 0 | 0 | 20 | 0 | 0 | 0 | 0 | 0 | 0 | 0 | 0 | 0 | 0 | 0 | 70 | 0 | Ragweed plant response rating (0 to 100 scale) ([2]; 500 g ai/ha): 80; Kochia plant response rating (0 to 100 scale) (kochia (Kochia scoparia) [3]; 500 g ai/ha): 0; Foxtail, Green plant response rating (0 to 100 scale) ([4]; 500 g ai/ha): 100; Ryegrass, Italian plant response rating (0 to 100 scale) ([5]; 500 g ai/ha): 0; Pigweed plant response rating (0 to 100 scale) ([6]; 500 g ai/ha): 90; Barnyardgrass plant response rating ([10]; 500 g ai/ha): 0; Kochia plant response rating (kochia (Kochia scoparia) [11]; 500 g ai/ha): 10; Foxtail, Green plant response rating ([12]; 500 g ai/ha): 30; Blackgrass plant response rating ([13]; 500 g ai/ha): 20; Ryegrass, Italian plant response rating ([14]; 500 g ai/ha): 0; Wheat plant response rating ([15]; 500 g ai/ha): 0; Corn plant response rating (corn (Zea mays); 500 g ai/ha): 0; Pigweed plant response rating ([16]; 500 g ai/ha): 20 |

From patent US11498899B2, “Nitrone herbicides” (FMC Corporation, priority 2016, dated 2022)
